Results published in publication PMC7180456, “Multitarget Anticancer Agents Based on Histone Deacetylase and Protein Kinase CK2 Inhibitors” (Molecules, 2020).

What was measured:
[1] = test system: Jurkat T-leukemia cells; experiment: Cell cycle analysis, PI staining, FACS; format: cell-based, human; conditions: 30 µM, 24 h
Protocol: To reveal potential mechanisms of cell death induction, selected CK2-HDAC inhibitors were tested in a PI staining assay. […] However, this effect was masked for high doses of DMAT-hydroxamate derivatives (30 µM) due to their strong proapoptotic activity, leading to appearance of > 80% cells in pre-G1 phase (apoptotic). Thus, lower concentrations of 11b–d (2 µM and 5 µM) had to be addressed in order to observe their inhibitory effect on cell cycling. […] As G1/S cell arrest is considered a typical feature of HDAC inhibitors, including SAHA [79], the observed phenomenon is yet another confirmation of HDAC targeting by these novel dual inhibitors in cell culture.
Cell cycle of the analyzed cells was assessed according to protocol described by Walker et al.. After drug treatment, 2 × 10^6 cells were collected, pelleted by spinning at 1,000 rpm, 4 °C for five minutes, resuspended in 1 mL of cold PBS and fixed by adding drop by drop 4 mL of −20 °C absolute ethanol. On the next day, fixed cells were centrifuged again and cell pellets were resuspended in 1 mL of PBS. Then 100 µL of 200 µg/mL DNase-free, RNase A (Invitrogen, USA) was added to cell suspension and incubated at 37 °C for 30 minutes. After this 100 µL of 1 mg/mL propidium iodide was added to samples, which were incubated at room temperature for 5–10 min and then analyzed on FACScan flow cytometer (Becton Dickinson, USA). Cell cycle analysis was carried out using the Cytomation Summit Software v3.1 (Cytomation Inc., USA).

[2] = biological target: T1, HDAC6 (Homo sapiens, UniProt Q9UBN7); experiment: HDAC6 inhibition, fluorometric method (Enzo Fluorometric Drug Discovery Assay Kit); format: biochemical; conditions: read-out: Inhibitory activity IC50 on HDAC6
T1 construct: purchased Enzo Life Sciences, Inc
T1 sequence (Q9UBN7 1-1215): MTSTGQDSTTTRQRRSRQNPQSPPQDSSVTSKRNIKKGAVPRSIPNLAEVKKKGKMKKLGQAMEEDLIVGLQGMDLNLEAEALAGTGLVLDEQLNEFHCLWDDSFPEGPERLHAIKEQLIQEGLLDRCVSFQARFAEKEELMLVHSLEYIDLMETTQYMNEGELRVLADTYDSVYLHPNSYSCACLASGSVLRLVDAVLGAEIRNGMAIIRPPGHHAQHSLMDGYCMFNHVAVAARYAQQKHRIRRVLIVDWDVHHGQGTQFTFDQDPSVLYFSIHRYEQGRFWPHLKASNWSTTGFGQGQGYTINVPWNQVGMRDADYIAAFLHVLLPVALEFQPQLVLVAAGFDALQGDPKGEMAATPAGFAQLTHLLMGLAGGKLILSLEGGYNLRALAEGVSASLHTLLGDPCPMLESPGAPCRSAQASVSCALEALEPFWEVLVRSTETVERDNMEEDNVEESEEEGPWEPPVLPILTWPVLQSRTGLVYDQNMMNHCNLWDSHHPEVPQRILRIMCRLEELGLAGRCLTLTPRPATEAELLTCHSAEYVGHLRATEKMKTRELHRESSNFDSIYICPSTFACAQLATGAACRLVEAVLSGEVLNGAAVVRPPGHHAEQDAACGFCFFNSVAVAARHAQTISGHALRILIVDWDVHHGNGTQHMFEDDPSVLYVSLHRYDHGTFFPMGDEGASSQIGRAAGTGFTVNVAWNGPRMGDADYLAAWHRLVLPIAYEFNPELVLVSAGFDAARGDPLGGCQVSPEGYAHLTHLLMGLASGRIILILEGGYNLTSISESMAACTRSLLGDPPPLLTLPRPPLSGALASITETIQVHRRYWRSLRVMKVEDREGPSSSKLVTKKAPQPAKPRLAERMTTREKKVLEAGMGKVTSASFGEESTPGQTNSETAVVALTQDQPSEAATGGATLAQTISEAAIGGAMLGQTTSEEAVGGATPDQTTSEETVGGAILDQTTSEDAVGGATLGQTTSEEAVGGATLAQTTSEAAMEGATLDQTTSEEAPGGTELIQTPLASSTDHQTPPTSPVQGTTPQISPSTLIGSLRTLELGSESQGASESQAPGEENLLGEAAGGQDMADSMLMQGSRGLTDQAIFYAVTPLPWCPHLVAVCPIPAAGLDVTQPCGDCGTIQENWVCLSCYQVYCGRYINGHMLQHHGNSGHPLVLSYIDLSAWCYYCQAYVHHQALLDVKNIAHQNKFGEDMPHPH
Protocol: For this reason, we analyzed the activity of 15 and 19, together with other compounds from the alkyl and triazole series in HDAC6, tested using a fluorometric method (Table 1).
15 µL of HDAC1 (0.4 µg/well) or HDAC6 (0.5 µg/well) were incubated at 37 °C for 30 minutes with 10 µL of inhibitor diluted in 5% DMSO and 25 µL of fluorogenic substrate (0.05 µL/well of 5 mM solution). Reactions were stopped with the developer and trichostatin A, diluted in buffer without BSA, and the plate was incubated at 30 °C for 45 min, followed by measuring the fluorescence (Ex. 360 nm, Em. 450 nm, Fluoroskan, Thermo Scientific).

[3] = test system: HL-60, HL-60/adr and HL-60/vinc leukemia cells; experiment: DCFDA assay, hydrogen peroxide production; format: cell-based, human; conditions: 10 µM and 30 µM, 24 h
Source text: To reveal potential mechanisms underlying this phenomenon, we studied the impact of the selected compounds on ROS production in both sensitive and MDR cell lines (Figure S8). […] As mitochondria are considered the main source of cellular superoxides, the next aim of our studies was to check whether CK2-HDAC inhibitors induce oxidative stress in tumor cells via depolarization of mitochondria, using the JC-1 assay. However, it was technically impossible to measure JC-1 accumulation on HL-60/adr and HL-60/vinc cells, because JC-1 is a substrate for these ABC-transporter proteins and is actively pumped out into extracellular medium.
Cellular ROS contents were measured by incubating control or drug-treated cells with fluorescent dyes dihydrodichlorofluorescein diacetate (DCFDA, detecting mainly H2O2) and dihydroethidium (DHE, O2^●−-specific) in concentrations of 10 μM at 37 °C for 30 minutes. After incubation with the dyes, cells were washed with PBS and immediately analyzed at FL1 (DCFDA) or FL2 channel (DHE) of FACSCalibur flow cytometer (BD Biosciences, San Jose, CA).

## CN(C)c1nc2c(Br)c(Br)c(Br)c(Br)c2n1CCc1cn(CCC(=O)NO)nn1 [Compound 7c, N-Hydroxy-3-(4-(2-(4,5,6,7-tetrabromo-2-(dimethylamino)-1H-benzo[d]imidazol-1-yl)ethyl)-1H-1,2,3-triazol-1-yl)propanamide]
[1]
  cells in pre-G1 phase (apoptotic): increased insignificantly
[2]
  IC50: 30.7 µM
[3]
  impact on hydrogen peroxide production: hydrogen peroxide burst

## O=C(NO)c1ccc(Cn2nc3c(Br)c(Br)c(Br)c(Br)c3n2)cc1 [Compound 15a, N-Hydroxy-4-((tetrabromo-2H-benzo[d][1,2,3]triazol-2-yl)methyl)benzamide]
[1]
  cells in pre-G1 phase (apoptotic): increased insignificantly
[2]
  IC50: 11 µM

## CN(C)c1nc2c(Br)c(Br)c(Br)c(Br)c2n1Cc1ccc(C(=O)NO)cc1 [Compound 19, N-Hydroxy-4-((4,5,6,7-tetrabromo-2-(dimethylamino)-1H-benzo[d]imidazol-1-yl)methyl)benzamide]
[1]
  cells in pre-G1 phase (apoptotic): increased insignificantly
[2]
  IC50: 20.6 µM
